Measurements: patent publication US10875875B2, “Propionic acid derivatives and methods of use thereof” (Aviara Pharmaceuticals, Inc., priority 2017, dated 2020)

Key:
α4β7 = target: T1, α4β7 (Homo sapiens, UniProt P13612+P26010); experiment: α4β7 integrin inhibition, IC50; type: binding
T1 sequence (P13612 34-1032): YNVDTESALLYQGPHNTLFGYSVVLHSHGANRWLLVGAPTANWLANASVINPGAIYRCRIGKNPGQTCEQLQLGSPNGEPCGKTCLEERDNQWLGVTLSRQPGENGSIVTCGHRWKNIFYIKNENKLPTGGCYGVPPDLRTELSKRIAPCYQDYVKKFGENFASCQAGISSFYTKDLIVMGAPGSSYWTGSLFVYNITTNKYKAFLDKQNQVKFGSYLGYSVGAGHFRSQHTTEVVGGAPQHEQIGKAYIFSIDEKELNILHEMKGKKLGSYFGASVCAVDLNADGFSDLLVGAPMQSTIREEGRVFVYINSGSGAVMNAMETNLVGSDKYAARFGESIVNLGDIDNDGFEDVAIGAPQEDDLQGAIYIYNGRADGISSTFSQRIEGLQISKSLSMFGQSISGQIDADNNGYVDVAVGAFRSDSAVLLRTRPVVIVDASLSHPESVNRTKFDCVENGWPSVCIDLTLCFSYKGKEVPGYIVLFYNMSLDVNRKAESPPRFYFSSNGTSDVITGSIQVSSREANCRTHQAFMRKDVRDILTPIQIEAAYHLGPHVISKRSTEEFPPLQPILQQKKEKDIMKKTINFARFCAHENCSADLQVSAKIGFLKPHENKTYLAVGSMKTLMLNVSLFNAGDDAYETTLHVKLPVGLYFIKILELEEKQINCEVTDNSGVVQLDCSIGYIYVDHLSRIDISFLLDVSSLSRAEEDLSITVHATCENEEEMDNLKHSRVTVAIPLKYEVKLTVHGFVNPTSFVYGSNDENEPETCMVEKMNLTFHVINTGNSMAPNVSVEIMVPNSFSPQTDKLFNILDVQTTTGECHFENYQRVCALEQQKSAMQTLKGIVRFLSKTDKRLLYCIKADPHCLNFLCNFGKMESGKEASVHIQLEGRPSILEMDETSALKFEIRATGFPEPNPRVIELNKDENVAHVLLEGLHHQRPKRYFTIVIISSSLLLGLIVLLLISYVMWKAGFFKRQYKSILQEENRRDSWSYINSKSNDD
T1 sequence (P26010 20-798): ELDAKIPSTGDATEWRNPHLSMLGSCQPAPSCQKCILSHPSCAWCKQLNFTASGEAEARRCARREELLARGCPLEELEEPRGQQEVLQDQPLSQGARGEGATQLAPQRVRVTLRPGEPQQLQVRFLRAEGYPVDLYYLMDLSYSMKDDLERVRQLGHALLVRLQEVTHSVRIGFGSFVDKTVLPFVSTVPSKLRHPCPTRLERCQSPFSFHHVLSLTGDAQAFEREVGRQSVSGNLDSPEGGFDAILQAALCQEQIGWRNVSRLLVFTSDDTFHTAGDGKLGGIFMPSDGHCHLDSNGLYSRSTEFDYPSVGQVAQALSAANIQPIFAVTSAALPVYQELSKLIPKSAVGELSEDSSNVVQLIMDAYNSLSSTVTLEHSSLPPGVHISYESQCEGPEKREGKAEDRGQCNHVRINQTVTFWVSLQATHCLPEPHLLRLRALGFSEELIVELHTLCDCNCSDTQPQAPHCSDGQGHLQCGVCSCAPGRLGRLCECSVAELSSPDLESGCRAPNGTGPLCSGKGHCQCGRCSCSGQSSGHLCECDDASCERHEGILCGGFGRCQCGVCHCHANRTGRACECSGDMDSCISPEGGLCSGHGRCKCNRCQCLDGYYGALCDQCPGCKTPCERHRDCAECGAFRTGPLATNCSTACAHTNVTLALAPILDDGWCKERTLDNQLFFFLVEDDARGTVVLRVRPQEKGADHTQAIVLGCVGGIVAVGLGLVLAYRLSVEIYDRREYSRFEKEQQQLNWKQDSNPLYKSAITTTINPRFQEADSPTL

α4β1 = α4β1 (Homo sapiens, UniProt P05556+P13612); experiment: α4β1 integrin inhibition, IC50; type: binding; settings: read-out: α4β1 IC50
Chain of α4β1 (P05556 21-798, one chain of several): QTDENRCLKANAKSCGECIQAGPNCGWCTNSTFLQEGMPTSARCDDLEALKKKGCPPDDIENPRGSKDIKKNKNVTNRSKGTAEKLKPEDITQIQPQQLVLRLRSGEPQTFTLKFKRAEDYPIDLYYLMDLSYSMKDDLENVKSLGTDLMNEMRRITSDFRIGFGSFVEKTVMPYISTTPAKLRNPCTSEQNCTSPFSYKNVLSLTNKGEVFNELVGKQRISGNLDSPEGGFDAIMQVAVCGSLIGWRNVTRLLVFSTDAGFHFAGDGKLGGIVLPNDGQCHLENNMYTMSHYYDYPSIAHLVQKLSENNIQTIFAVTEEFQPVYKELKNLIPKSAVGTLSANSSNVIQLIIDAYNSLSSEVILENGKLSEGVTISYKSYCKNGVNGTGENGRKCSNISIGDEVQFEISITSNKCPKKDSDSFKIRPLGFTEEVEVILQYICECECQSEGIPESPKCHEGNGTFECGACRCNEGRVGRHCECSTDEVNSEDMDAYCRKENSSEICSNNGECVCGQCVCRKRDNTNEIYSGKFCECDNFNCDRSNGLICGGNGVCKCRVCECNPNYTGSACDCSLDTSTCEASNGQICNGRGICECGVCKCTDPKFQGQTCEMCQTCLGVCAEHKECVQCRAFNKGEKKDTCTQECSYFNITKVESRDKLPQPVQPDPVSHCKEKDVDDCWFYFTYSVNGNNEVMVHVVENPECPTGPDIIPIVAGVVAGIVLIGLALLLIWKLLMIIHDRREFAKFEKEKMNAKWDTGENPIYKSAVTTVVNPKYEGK

IC50 (α4β7): < 20 nM | IC50 (α4β1): < 20 nM
SMILES: Cc1cccc(C)c1-c1cc(F)cc([C@H](CC(=O)O)NC(=O)Nc2c(O)cc(C)n(C)c2=O)c1 [1-642, sodium (S)-3-(3-(1,6-dimethyl-4-oxido-2-oxo-1,2-dihydropyridin-3-yl)ureido)-3-(5-fluoro-2′,6′-dimethylbiphenyl-3-yl)propanoate]
